How the values were obtained:
[1] = system: PsAFB2 transcript abundance in pericarp; experiment: Pea split-pericarp assay, hormone applied to deseeded pericarps, PsAFB2 transcript abundance by qRT-PCR; format: in vivo, Pisum sativum; settings: deseeded 2 DAA pericarps, 50 μM hormone applied 12 h after deseeding, 2, 8 and 12 h after application
Experimental: (§1) To examine the hormonal regulation of pericarp AFB mRNA levels, the pea split-pericarp assay was used (Ozga et al., 1992). Fruit at 2 DAA were split along the dorsal suture. Seeds were removed and pericarps were left for 12 hours prior to hormone application to reduce residual seed effects. […] For split-pod, no seed controls (SPNS), 30 μL of 0.1% aqueous Tween 80 was applied. For split-pod controls (SP), seeds were not removed after the dorsal suture was opened, but 30 μL of 0.1% aqueous Tween 80 was applied 12 hours after pericarp splitting. As a further control for the split-pericarp procedure, intact pods were also harvested at the appropriate times. All fruit subjected to split-pericarp treatments were covered with plastic to maintain humidity, and all manipulations were carried out while pericarps remained on the plant. Intact controls were harvested at the 0 hour and 12 hour treatment timing, while all split-pericarp treatments were harvested at 12, 14, 20, and 24 hours after pericarp splitting (0, 2, 8, and 12 hours after hormone treatment).
All transcript quantification was performed on a StepOnePlus sequence detector (Applied Biosystems). Reverse transcription and quantification was performed using TaqMan One-Step RT-PCR Master Mix (Applied Biosystems; final concentration 1×) and 200 ng of DNAse treated total RNA (final concentration 8 ng μL^−1) in duplicate in a final volume of 25 μL per well. The final concentration of forward and reverse primers was 300 nM each, and the final concentration of probe was 100 nM. Reverse transcription was carried out for 30 minutes at 48° C. […] Quantification was carried out for 40 cycles of the following program: denaturation at 95° C. for 15 seconds, primer annealing and extension at 60° C. for 1 minute. […]
(§2) Relative transcript levels were calculated using the ΔCt method (Livak and Schmittgen, 2001) using the following formula, where X is an arbitrary value equal to or greater than the highest assayed Ct value and E is the reaction efficiency for the amplicon in question: Transcript abundance=(1+E)^X−Ct) (1)

[2] = system: PsAFB6 transcript abundance in pericarp; experiment: Pea split-pericarp assay, hormone applied to deseeded pericarps, PsAFB6 transcript abundance by qRT-PCR; format: in vivo, Pisum sativum; settings: deseeded 2 DAA pericarps, 50 μM hormone
Experimental: as §1
All transcript quantification was performed on a StepOnePlus sequence detector (Applied Biosystems). Reverse transcription and quantification was performed using TaqMan One-Step RT-PCR Master Mix (Applied Biosystems; final concentration 1×) and 200 ng of DNAse treated total RNA (final concentration 8 ng μL^−1) in duplicate in a final volume of 25 μL per well. The final concentration of forward and reverse primers was 300 nM each, and the final concentration of probe was 100 nM. Reverse transcription was carried out for 30 minutes at 48° C. DNA polymerase antibody was denatured at 95° C. for 10 minutes. Quantification was carried out for 40 cycles of the following program: denaturation at 95° C. for 15 seconds, primer annealing and extension at 60° C. for 1 minute. Probes were labelled at the 5′ end with FAM (6-carboxyfluorescein) and at the 3′ end with the MGB quencher (Applied Biosystems).
as §2

deseeded pea pericarps [3] = settings: hormone applied to deseeded pericarps, split-pericarp assay; literature (Reinecke et al. 1995, 1999; Ozga and Reinecke 1999; Johnstone et al. 2005); cited from earlier work
deseeded pea pericarps [4] = experiment: Deseeded pea pericarp growth / fruit abortion after hormone application (split-pericarp); format: in vivo, Pisum sativum; settings: hormone applied to deseeded ovaries
[5] = throughout the time course (2 to 12 h after application)

Structure (SMILES)	effect on steady-state PsAFB2 transcript abundance [1]	effect on pericarp PsAFB6 mRNA abundance ([2]; 2 hours after application)	effect on pericarp PsAFB6 mRNA abundance [2, 5]	deseeded pericarp growth (deseeded pea pericarps [3])	abortion of deseeded fruits (deseeded pea pericarps [4])	effect on pericarp PsAFB6 mRNA abundance ([2]; 8 hours to 12 hours after application)
O=C(O)Cc1c[nH]c2cccc(Cl)c12 [4-Cl-IAA, 4-chloroindole-3-acetic acid]	did not significantly affect	initially reduced	reduced PsAFB6 mRNA abundance to levels similar to those found in SP controls	stimulated pericarp growth	prevention of fruit abortion	–
Cc1cccc2[nH]cc(CC(=O)O)c12 [4-Me-IAA]	–	–	–	capable of stimulating the expansion of deseeded pericarps, but not to the same extent as 4-Cl-IAA	–	–
C=C1C[C@]23C[C@@]1(O)CC[C@H]2[C@@]12CC[C@H](O)[C@@](C)(C(=O)O1)[C@H]2[C@@H]3C(=O)O [GA1]	–	–	–	stimulate deseeded pericarp growth	–	–
C=C1C[C@]23C[C@@]1(O)CC[C@H]2[C@@]12C=C[C@H](O)[C@@](C)(C(=O)O1)[C@H]2[C@@H]3C(=O)O [GA3]	did not significantly affect	–	no effect	stimulate deseeded pericarp growth	–	–
O=C(O)Cc1c[nH]c2ccccc12 [IAA, indole-3-acetic acid]	did not significantly affect	–	–	further decreases growth	nor does it prevent the abortion of deseeded fruits	increased to that observed in the SPNS pericarps
